Tests used:
MEG-01S cells = assay: MEG-01S cell viability by MTT assay; assay type: cell-based, human; conditions: 24 h, 0-100 μM
Protocol: (§1) All bone marrow-derived macrophages (BMM) were obtained by culturing bone marrow cells from the femurs of 6 to 8 week old C57BL/6 male mice in RPMI 1640 medium (Invitrogen Life Technologies, Carlsbad, Calif., USA) supplemented with 10% Fetal calf serum (Invitrogen) 20 U/ml penicillin and 20 μg/ml streptomycin (Invitrogen), 2 mM L-glutamine (Glutamax-1, Invitrogen) in the presence of 10^4 U/ml (100 ng/mL) recombinant human CSF-1 (a gift from Chiron, Emeryville, Calif.) on bacteriological plastic plates for 7 days. The human megakaryocytic cell line MEG-01S was obtained from the American Type Culture Collection. MEG-01S were maintained in the same media as for BMM, supplemented with 1 mM Sodium Pyruvate (Invitrogen).
(§2) Known inhibitors 1 and 2, along with compound 3, were used to treat BMM at three doses (10, 30, 100 μM) in the presence of LPS for 24 h and cell viability was measured by MTT assay. BMM were seeded at 1×10^5 cells/well in 96 well plates and treated for 24 h with LPS (10 ng/ml) and compounds at 10, 30 and 100 μM. MEG-01S were PMA differentiated overnight before compounds were added for a further 24 h at 10, 30 and 100 μM. Cell viability was measured by MTT (Sigma-Aldrich) assay as described previously (Irvine, FASEB J, 2006).
The effect of the compounds on MEG-01S cell viability was measured by MTT assay after 24 h treatment across the concentration range 0-100 μM of compounds (FIG. 3B). Data represent the average of 4 independent experiments plus SEM.

BMM = BMM cell viability by MTT assay; assay type: cell-based, mouse; conditions: LPS 10 ng/ml, 24 h, 10-100 μM
Protocol: as §1, §2

H-PGDS = H-PGDS (Homo sapiens (Human), UniProt O60760); assay: H-PGDS catalyzed conjugation of GSH and CDNB, enzyme inhibition assay; assay type: biochemical; conditions: 50 μM compound; mean ± standard error of triplicate experiments; read-out: I[50], percent inhibition at 50 μM
H-PGDS, sequence (O60760 whole entry): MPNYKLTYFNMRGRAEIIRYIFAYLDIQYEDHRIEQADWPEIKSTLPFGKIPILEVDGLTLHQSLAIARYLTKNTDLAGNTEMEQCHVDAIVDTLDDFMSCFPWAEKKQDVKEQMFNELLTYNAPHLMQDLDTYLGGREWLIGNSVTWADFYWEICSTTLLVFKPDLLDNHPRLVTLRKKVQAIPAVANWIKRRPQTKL
Protocol: H-PGDS was expressed and purified as described previously (Jowsey, 2001). Briefly, H-PGDS was expressed in Escherichia coli strain BL21 DE3 transformed with the pET17b HPGDS expression construct, grown overnight at 37° C. in 250 ml of Luria-Bertani medium supplemented with 100 μg/ml ampicillin. After 24 h, without induction, bacteria were harvested by centrifugation at 5000 g for 20 min at 4° C.; cell pellets were kept at −70° C. until required. Cells were resuspended in 25 ml of ice-cold phosphate buffered saline (PBS), pH 7.4, containing 1 mM DTT, 0.5% Triton X-100 and EDTA-free protease inhibitor tablets (F. Hoffmann-La Roche, Dee Why, NSW, Australia); and incubated with rotation for 30 mins at 4° C. Cells were then lysed by sonication at 90-100 W over 3×1 min intervals, while incubated on ice; the lysate clarified by centrifugation at 18000 g for 10 min at 4° C.
The supernatant was then applied to a GSTPrep FF 16/10 column pre-equilibrated with PBS, pH 7.4, and 1 mM DTT, at 0.4 ml/minute using an AKTA explorer 100 (GE Healthcare, Rydalmere, NSW, Australia), then washed with 5 column volumes of the same buffer at 1 ml/min. Bound H-PGDS was eluted in 5 column volumes of 15 mM reduced glutathione in 50 mM Tris, pH 9.0, at 0.5 ml/min, and dialysed against 100 volumes of 5 mM TrisCl, pH 8.0. The protein was concentrated to 20 mg/ml, as determined by the method of Bradford (Bradford, 1976) using an Amicon Ultra-4 centrifugal filter device (Millipore, North Ryde, NSW, Australia) following manufacturers recommendations. Glycerol was added to a final concentration of 10% (v/v) prior to storage at −20° C.
The H-PGDS catalyzed conjugation of GSH and 1-chloro-2,4-dinitrobenzene (CDNB) was used as the biochemical assay for enzyme inhibition. Reactions were performed in 96 well plate format, and product formation was followed at A340 nm over a 10 min interval at 25° C. using a POWERWAVE XS microplate scanning spectrophotometer (Bio-Tek Instruments, Winooski, Vt., USA). Reactions were performed in 0.1 M Tris HCl, pH 8.0 containing 2 mM MgCl2, 1 mM CDNB, 2 mM GSH, 2.5 ng/μ1 purified H-PGDS and 10% (v/v) ethanol in a 200 μl reaction volume. IC50 values were calculated from rates of conjugation activity determined at eight concentration points bracketing the IC50, where compound solubility allowed, and were corrected for background activity at the same solvent concentrations. All compounds were made up in 100% DMSO and diluted with 0.1 M Tris HCl, pH 8.0 with 2 mM MgCl2. I50 and IC50 values were determined at a final DMSO composition of no greater than 4% v/v for all compounds. Non-linear regression analysis and IC50 calculations were performed using GraphPad Prism version 4.0c.

[1] = system: PGD2 production in mouse primary bone marrow-derived macrophages (BMM); assay: PGD2 production in LPS-activated BMM (EIA); assay type: cell-based
Protocol: as §1, with “(Invitrogen). […] The average PGD2 production from three independent experiments plus SEM is shown. * indicates p<0.05 versus LPS treatment alone. (Student's t test).” for “(Invitrogen).”

[2] = Rat pharmacokinetics, plasma concentration after oral dosing; assay type: in vivo, Sprague Dawley rat; conditions: single oral 40 mg/kg; for Concentration (individual rat): rat plasma
Protocol: Male adult Sprague Dawley rates (˜165 g) received a single oral bolus dose of 40 mg/kg of compound 3 in a 0.5% methylcellulose/0.1% Tween80 by oral gavage. Rats were sacrificed when collecting blood and spleen samples just prior to dosing and at 0.5 hours, 2 h, 8 h and 24 h (n=3 rats per time point), and the plasma concentration of compound 3 and the spleen PGD2 concentration was measured at each time point.
Blood samples were removed and kept cold at approximately 4° C. immediately after collection to minimize degradation and centrifuged as soon as possible at approximately 4000×g for 10 min. The plasma was transferred to a clean, pre-labelled polypropylene tube and frozen. Samples were stored at −20° C. as soon as possible after collection to minimise degradation of the test item.
Plasma concentrations of 3 were determined using a screening LC-ms/ms method developed using the following parameters:
Samples were analysed alongside plasma standards. Concentration data were determined by back calculation from standard curve.

[3] = system: LPS-inducible PGE2 production from BMM; assay: PGE2 production in LPS-activated BMM (EIA); assay type: cell-based; conditions: LPS-activated mouse BMM, 24 h
Protocol: as §1
(§3) BMM were seeded overnight at 2×10^5 cells/ml in 24 well plates before treatment with compound at either 10 μM or 0.1-100 μM for 24 h in the presence or absence of lipopolysaccharide (LPS) from Salmonella Minnesota (Sigma-Aldrich) at a final concentration of 10 ng/ml. […] Supernatants were collected and samples were analysed for PGD2 using Prostaglandin D2 Mox Express EIA kits, PGE2 using Prostaglandin E2 Express EIA kits, the prostacyclin derivative 6-keto PGF1α using the 6-keto Prostaglandin F1α EIA Kit and the Thromboxane A2 derivative TXB2 using the Thromboxane B2 Express EIA kit (Cayman Chemical) according to the manufacturer's instructions. […]

[4] = system: PGD2 production from MEG-01S human megakaryocytes; assay: A23187-inducible PGD2 production in PMA-differentiated MEG-01S (EIA); assay type: cell-based; conditions: 0-100 μM
Protocol: as §1, §3

[5] = system: LPS-inducible TXB2 (thromboxane A2 derivative) production from BMM; assay: TXB2 production in LPS-activated BMM (EIA); assay type: cell-based; conditions: LPS-activated mouse BMM, 24 h
Protocol: as §1, §3

[6] = system: LPS-inducible 6-keto PGF1α (prostacyclin derivative) production from BMM; assay: 6-keto PGF1α production in LPS-activated BMM (EIA); assay type: cell-based; conditions: LPS-activated mouse BMM, 24 h
Protocol: as §1, §3

## c1ccc(C(OC2CCN(CCCc3nnn[nH]3)CC2)c2ccccc2)cc1 [Compound 1]
MEG-01S cells
  effect on MEG-01S cell viability: little effect
BMM
  effect on BMM cell viability: modest but significant effects

## Cc1cc(-c2ccc(C(=O)N[C@@H](Cc3ccccc3)C(N)=O)cn2)sc1C#N [Compound 22]
H-PGDS
  inhibition at 50 µM: 34.6 ± 2.1%

## c1ccc(-c2ncc(-c3cc[nH]n3)s2)cc1 [Compound 2]
MEG-01S cells
  effect on MEG-01S cell viability: little effect
[1]; Mus musculus, Macrophage, 24 h, read-out: EC50 for inhibition of PGD2 production
  EC50: ~160 nM
BMM
  effect on BMM cell viability: modest but significant effects

## N#Cc1ccc(-c2ccc(C(=O)N[C@@H](Cc3ccccc3)C(N)=O)cn2)s1 [Compound 20]
H-PGDS
  inhibition at 50 µM: 67.9 ± 1.6%

## NC(=O)[C@H](Cc1ccccc1)NC(=O)c1ccc(-c2ccc(C(=O)O)s2)nc1 [Compound 15]
H-PGDS
  inhibition at 50 µM: 19.4 ± 1.4%

## NC(=O)[C@H](Cc1ccccc1)NC(=O)c1ccc(-c2cccs2)nc1 (stereo in doubt) [Compound 3, N-(1-amino-1-oxo-3-phenylpropan-2-yl)-6-(thiophen-2-yl)-nicotinamide]
[2]; 0.5 h
  Concentration (individual rat): 177 ng/mL
[2]; 24 h, BLOQ = below the lower limit of quantitation
  Concentration (individual rat): BLOQ^2
[2]; rat
  oral bioavailability: orally bioavailable
MEG-01S cells
  effect on MEG-01S cell viability: little effect
[3]
  concentration above which PGE2 inhibition was observed: above 10 μM
[1]; LPS-activated mouse BMM
  differential effect in inhibition of PGD2 versus PGE2, 6-keto PGF1α or TXB2 (selectivity): striking selectivity
[1]; LPS-activated mouse BMM, 0-100 μM, 24 h
  inhibition of PGD2 production: inhibited PGD2 production in the sub-micromolar range dose-dependently
[1]; LPS-activated mouse BMM, 1 μM
  inhibition of PGD2 levels at 1 μM: significantly inhibiting
[1]; LPS-activated mouse BMM, PGD2 production
  EC50 fold better than that estimated for compound 1: ~30 fold
BMM
  effect on BMM cell viability: did not affect BMM viability
[4]
  inhibition of A23187-inducible PGD2 production: dose-dependently
[5]
  concentration above which TXB2 inhibition was observed: above 10 μM
[6]
  concentration above which 6-keto PGF1α inhibition was observed: above 10 μM

## O=C(c1ccc(-c2cccs2)nc1)N1CCC(N2C(=O)OCc3ccccc32)CC1 [Compound 13, 1-(1-(6-(thiophen-2-yl)nicotinoyl)piperidin-4-yl)-1H-benzo[d][1,3]oxazin-2(4H)-one]
H-PGDS
  inhibition at 50 µM: 87.9 ± 1.1%

From patent US9199976B2, “Haematopoietic-prostaglandin D2 synthase inhibitors” (The University of Queensland, priority 2010, dated 2015)
